Source: patent publication US12419877B2, “Solid forms of {[5-(3-chlorophenyl)-3-hydroxypyridine-2-carbonyl]amino}acetic acid, compositions, and uses thereof” (Akebia Therapeutics, Inc., priority 2013, dated 2025)

Columns and labels:
[1] = Dynamic Vapour Sorption (DVS) with XRPD re-analysis; format: physicochemical
Method: Dynamic Vapour Sorption (DVS) was performed on a DVS-1 dynamic vapour sorption balance by Surface Measurement Systems. Approximately 10-20 mg of sample was loaded into a wire mesh vapour sorption balance pan of the balance. The sample was subjected to a ramping profile from 20-90% relative humidity (RH) in 10% increments, maintaining the sample at each step until a stable weight had been achieved (99.5% step completion) or 1000 minutes had elapsed. After completion of the sorption cycle, the sample was dried using the same procedure, but all the way down to 0% RH and finally taken back to the starting point of 20% RH. The weight change during the sorption/desorption cycles were plotted, allowing for the hygroscopic nature of the sample to be determined. Following the DVS analysis, the solid was re-analysed by XRPD in order to determine whether there had been any change in physical form.

[2] = Solid form stability in slurries; format: physicochemical; conditions: slurries at high temperature

water sorption at 90% RH ([1]; DVS, 90% RH): 0.33%
XRPD analysis following DVS (change in physical form) ([1]; after DVS sorption/desorption cycle): no change in form
hygroscopicity (DVS) ([1]; judged from water sorption at 90% RH): non-hygroscopic
Structure (SMILES): O=C(O)CNC(=O)c1ncc(-c2cccc(Cl)c2)cc1O [Form B, {[5-(3-chlorophenyl)-3-hydroxypyridine-2-carbonyl]amino}acetic acid]
solid form stability [2]: metastable and can convert to Form A in slurries at high temperature
